Measurements reported in ChEMBL document CHEMBL3525934 (Drug Metab Dispos, 2013).

Target: T1, Cytochrome P450 2C18 (Homo sapiens, UniProt P33260)
T1 sequence (P33260 whole entry): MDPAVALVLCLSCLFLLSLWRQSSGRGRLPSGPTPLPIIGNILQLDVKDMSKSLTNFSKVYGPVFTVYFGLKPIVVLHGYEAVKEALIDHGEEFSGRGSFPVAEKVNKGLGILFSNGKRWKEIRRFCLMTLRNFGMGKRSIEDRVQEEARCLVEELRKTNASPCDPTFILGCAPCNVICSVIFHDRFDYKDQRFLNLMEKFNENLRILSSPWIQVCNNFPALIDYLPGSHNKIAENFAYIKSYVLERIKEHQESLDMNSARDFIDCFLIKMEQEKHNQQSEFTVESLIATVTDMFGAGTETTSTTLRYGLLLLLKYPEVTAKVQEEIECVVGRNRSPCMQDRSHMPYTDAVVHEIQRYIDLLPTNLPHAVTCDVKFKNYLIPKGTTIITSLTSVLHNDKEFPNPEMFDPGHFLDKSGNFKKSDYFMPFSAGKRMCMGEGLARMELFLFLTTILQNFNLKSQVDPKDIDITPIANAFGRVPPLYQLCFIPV
Experiment: Drug metabolism in supersomes expressing human recombinant CYP2C18 assessed as enzyme-mediated N-desmethylclozapine metabolite formation at 100 uM after 30 mins measured per nmol of P450 by HPLC analysis
Format: ADME
Conditions: 0.5 h

`CN1CCN(C2=Nc3cc(Cl)ccc3Nc3ccccc32)CC1` [CLOZAPINE] gave a Drug metabolism of 5.71 nmol/min/nmol P450.
